Measured values reported in PubChem BioAssay AID1963449 (Molecular Pharmacology Branch, DTP, NCI, 2024).
Values belong to the molecule of their own block, whether it stands above or below them.

Tested on: 596521-263-R-J1-PDC complex spheroid growth
Test: Anticancer human tumor 596521-263-R-J1-PDC patient-derived soft tissue sarcoma cell line growth inhibition [Asc]
Settings: for IC50: curve of first compound; for viability, T/C: stronger effect = lower value
Method: Multicellular complex tumor spheroid response to apoptosis pathway targeting inhibitors Alrizomadlin, Pelcitoclax, and Dasminapant in combination with a variety of drugs and investigational agents in selected tumor cell lines
The MDM2 inhibitor alrizomadlin, the Bcl-2/Bcl-xL inhibitor pelcitoclax, and the IAPs inhibitor dasminapant were evaluated both individually and in combination with standard of care and investigational anticancer small molecules within a complex spheroid model of solid tumors. . Complex spheroids include a stromal component modeled by human endothelial cells (HUVEC) and fibroblasts modeled by human mesenchymal stem cells (MSCs). The concentration ranges selected for each drug and investigational agent were based upon clinically achievable concentrations if the clinical Cmax of the agent was known.
Compounds. The drugs and investigational agents: alrizomadlin (APG-115; NSC831270), pelcitoclax (APG-1252; NSC835773), dasminapant (APG-1387;NSC834197), TAK-243 (NSC785004), copanlisib (NSC809693), olaparib (NSC753686), talazoparib (NSC767125), cobimetinib (NSC 768068), eltanexor (KPT-8602, NSC 794443), abemaciclib (NSC 768073), sotorasib (NSC818433), adagrasib (NSC 831453), MRTX-1133 (NSC 836407), Iadademestat (ORY1001, NSC 806812), and RMC-4630 (NSC839698), were obtained from the NCI Developmental Therapeutics Program Chemical Repository. The FDA-approved anticancer drug set is available from the Developmental Therapeutics Program at https://dtp.cancer.gov/organization/dscb/obtaining/available plates.htm. […] The stock solutions were prepared in dimethyl sulfoxide (DMSO, Sigma-Aldrich, St. Louis, MO, cat. D2650) at 800-fold the tested concentration and stored at -70 degrees C prior to their use. All drugs and investigational agents were tested over a range starting from a high concentration at or near the clinical Cmax and decreasing in half-log increments. If the clinical Cmax for an agent had not been determined, the highest concentration tested was 10 microM.
The patient-derived cancer (PDC) cell lines include five colon adenocarcinomas: 186277-243-T-J2-PDC, 616215-338-R-J1-PDC, 439559-082-T-J2-PDC, 463943-066-T-J2-PDC, and 519858-162-T-J1-PDC; three pancreatic carcinomas: 323965-272-R-J2-PDC, 521955-158-R6-J3-PDC, and 521955-158-R2-J5-PDC; two uterine sarcomas: 327498-152-R-J2-PDC and 993429-296-R-J1-PDC; two rhabdomyosarcomas: 755483-174-R-J1-PDC and 772245-204-R-J1-PDC; two soft tissue sarcomas: 126254-015-R-J1-PDC and 494315-158-R-J1-PDC; two malignant fibrous histiocytomas: 317291-083-R-J1-PDC and 596521-263-R-J1-PDC; two breast carcinomas: 171881-019-R-J1-PDC and 885512-296-R-J2-PDC; and one ovarian carcinoma: 6556581-035-R-J-PDC were obtained from the NCI PDMR, (https://pdmr.cancer.gov). The established cell lines HSSY-2 synovial sarcoma (RRID:CVCL 8719), SYO-1 synovial sarcoma (RRID:CVCL_7146), MPNST malignant peripheral neural sheath tumor were obtained from the Sloan Kettering Institute. The following established cell lines were purchased from the American Type Culture Collection (ATCC, Manassas, VA), Sor the received from the NCI repository:, PANC-1 pancreatic carcinoma (CRL-1469, RRID:CVCL_0480), OVCAR-5 ovarian carcinoma (RRID:CVCL_1628), OVCAR-8 ovarian carcinoma (RRID:CVCL_1629), , MCF-7 breast carcinoma (CRL-12584, RRID:CVCL_0031), MDA-MB-231 breast carcinoma (CRL-12532, RRID:CVCL_0062), NCI-H1876 small cell lung carcinoma (CRL-5902, RRID:CVCL_1503), NCI-H510A small cell lung carcinoma (HTB-184, RRID:CVCL_1565), NCI-H1417 (CRL-5869, RRID:CVCL_1469), and NCI-H196 small cell lung carcinoma (CRL-5823, RRID:CVCL_1509). Dr. Peter Houghton (Greehey Children's Cancer Research Institute, University of Texas Health Science Center, San Antonio, TX) provided Rh-18 rhabdomyosarcoma (RRID:CVCL_1659). Pooled donor human umbilical vein endothelial cells (HUVEC, Lonza, cat. CC-2519) and human mesenchymal stem cells (hMSC, Lonza, cat. PT-2501) were purchased from Lonza (Walkersville, MD).
Cell Culture. […]

[1] = second compound 0.00949 µM, first compound 0.00316 µM
[2] = second compound 0.00949 µM, first compound 0.01 µM
[3] = second compound 0.00949 µM, first compound 0.0316 µM
[4] = second compound 0.00949 µM, first compound 0.1 µM
[5] = second compound 0.00949 µM, first compound 0.316 µM
[6] = second compound 0.00949 µM, first compound 1 µM
[7] = second compound 0.03 µM, first compound 0.00316 µM
[8] = second compound 0.03 µM, first compound 0.01 µM
[9] = second compound 0.03 µM, first compound 0.0316 µM
[10] = second compound 0.03 µM, first compound 0.1 µM
[11] = second compound 0.03 µM, first compound 0.316 µM
[12] = second compound 0.03 µM, first compound 1 µM
[13] = second compound 0.0949 µM, first compound 0.00316 µM
[14] = second compound 0.0949 µM, first compound 0.01 µM
[15] = second compound 0.0949 µM, first compound 0.0316 µM
[16] = second compound 0.0949 µM, first compound 0.1 µM
[17] = second compound 0.0949 µM, first compound 0.316 µM
[18] = second compound 0.0949 µM, first compound 1 µM
[19] = second compound 0.3 µM, first compound 0.00316 µM
[20] = second compound 0.3 µM, first compound 0.01 µM
[21] = second compound 0.3 µM, first compound 0.0316 µM
[22] = second compound 0.3 µM, first compound 0.1 µM
[23] = second compound 0.3 µM, first compound 0.316 µM
[24] = second compound 0.3 µM, first compound 1 µM
[25] = second compound 0.949 µM, first compound 0.00316 µM
[26] = second compound 0.949 µM, first compound 0.01 µM
[27] = second compound 0.949 µM, first compound 0.0316 µM
[28] = second compound 0.949 µM, first compound 0.1 µM
[29] = second compound 0.949 µM, first compound 0.316 µM
[30] = second compound 0.949 µM, first compound 1 µM
[31] = second compound 3 µM, first compound 0.00316 µM
[32] = second compound 3 µM, first compound 0.01 µM
[33] = second compound 3 µM, first compound 0.0316 µM
[34] = second compound 3 µM, first compound 0.1 µM
[35] = second compound 3 µM, first compound 0.316 µM
[36] = second compound 3 µM, first compound 1 µM
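Note: spheroids exposed to compounds for 7 days.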

IC50 (second compound 0.00949 µM): > 1000 nM
IC50 (second compound 0.03 µM): > 1000 nM
IC50 (second compound 0.0949 µM): > 1000 nM
IC50 (second compound 0.3 µM): > 1000 nM
IC50 (second compound 0.949 µM): > 1000 nM
IC50 (second compound 3 µM): > 1000 nM
SMILES: CCN1CCN(Cc2ccc(Nc3ncc(F)c(-c4cc(F)c5nc(C)n(C(C)C)c5c4)n3)nc2)CC1 + CCN1C(C(=O)NC23CCC(C(=O)O)(CC2)CC3)C(c2cccc(Cl)c2F)C2(C(=O)Nc3cc(Cl)ccc32)C12CCCCC2
viability, T/C [1]: 100%
viability, T/C [2]: 96.6%
viability, T/C [3]: 82.5%
viability, T/C [4]: 103%
viability, T/C [5]: 97.5%
viability, T/C [6]: 83.2%
viability, T/C [7]: 92.6%
viability, T/C [8]: 96.9%
viability, T/C [9]: 96.8%
viability, T/C [10]: 89.4%
viability, T/C [11]: 110%
viability, T/C [12]: 88%
viability, T/C [13]: 99.5%
viability, T/C [14]: 112%
viability, T/C [15]: 96.1%
viability, T/C [16]: 85.5%
viability, T/C [17]: 93.6%
viability, T/C [18]: 86.7%
viability, T/C [19]: 97.1%
viability, T/C [20]: 93.5%
viability, T/C [21]: 90%
viability, T/C [22]: 102%
viability, T/C [23]: 93.1%
viability, T/C [24]: 77.3%
viability, T/C [25]: 103%
viability, T/C [26]: 93.2%
viability, T/C [27]: 103%
viability, T/C [28]: 91.2%
viability, T/C [29]: 82.8%
viability, T/C [30]: 83.4%
viability, T/C [31]: 91.6%
viability, T/C [32]: 102%
viability, T/C [33]: 89.9%
viability, T/C [34]: 97.7%
viability, T/C [35]: 98.5%
viability, T/C [36]: 89.9%

IC50 (second compound 0.00949 µM): 493 nM
IC50 (second compound 0.03 µM): 466 nM
IC50 (second compound 0.0949 µM): 418 nM
IC50 (second compound 0.3 µM): 428 nM
IC50 (second compound 0.949 µM): 356 nM
IC50 (second compound 3 µM): 315 nM
SMILES: O=C(c1ccc(F)c(F)c1Nc1ccc(I)cc1F)N1CC(O)([C@@H]2CCCCN2)C1 + CCN1C(C(=O)NC23CCC(C(=O)O)(CC2)CC3)C(c2cccc(Cl)c2F)C2(C(=O)Nc3cc(Cl)ccc32)C12CCCCC2
viability, T/C [1]: 113%
viability, T/C [2]: 98.4%
viability, T/C [3]: 112%
viability, T/C [4]: 83.6%
viability, T/C [5]: 58.4%
viability, T/C [6]: 38.8%
viability, T/C [7]: 104%
viability, T/C [8]: 100%
viability, T/C [9]: 103%
viability, T/C [10]: 81.9%
viability, T/C [11]: 57.8%
viability, T/C [12]: 36.4%
viability, T/C [13]: 101%
viability, T/C [14]: 96.1%
viability, T/C [15]: 112%
viability, T/C [16]: 84.3%
viability, T/C [17]: 56.4%
viability, T/C [18]: 34.3%
viability, T/C [19]: 119%
viability, T/C [20]: 94.9%
viability, T/C [21]: 101%
viability, T/C [22]: 79.1%
viability, T/C [23]: 51.4%
viability, T/C [24]: 37%
viability, T/C [25]: 97.8%
viability, T/C [26]: 99.8%
viability, T/C [27]: 98.2%
viability, T/C [28]: 82.9%
viability, T/C [29]: 51.4%
viability, T/C [30]: 39.7%
viability, T/C [31]: 97.1%
viability, T/C [32]: 84.9%
viability, T/C [33]: 91.5%
viability, T/C [34]: 65.6%
viability, T/C [35]: 53.4%
viability, T/C [36]: 44.5%
